{
  "source": "the NIST ThermoML archive (doi:10.1016/j.jct.2010.04.022)",
  "key": {"[1]": {"test": "xn = mol fraction of the nth substance listed", "settings": "101 kPa, Liquid, Vibrating tube method"}, "[2]": {"settings": "298.15 K; 101.33 kPa; Liquid; Vibrating tube method"}, "[3]": {"test": "refractive index (Na D-line) (dimensionless)", "settings": "298.15 K; 101.33 kPa; Liquid; Standard Abbe refractometry"}},
  "note": "± gives the expanded uncertainty stated by the source.",
  "data": [
    {"compound": "CCOS(=O)(=O)[O-].CC[n+]1ccccc1", "note": "[1-ethylpyridinium ethyl sulfate] + CCCCCC", "values": [
      {"measurement": "mass density", "setting": "[1]; 283.15 K, x2 = 0.007", "value": "1259.82 ± 0.99", "unit": "kg/m3"},
      {"measurement": "mass density", "setting": "[1]; 298.15 K, x2 = 0.008", "value": "1249.78 ± 1.1", "unit": "kg/m3"}
    ]},
    {"compound": "CCOS(=O)(=O)[O-].CC[n+]1ccccc1", "note": "[1-ethylpyridinium ethyl sulfate]", "values": [
      {"measurement": "mass density", "setting": "[2]", "value": "1252 ± 0.4", "unit": "kg/m3"},
      {"measurement": "refractive index", "setting": "[3]", "value": "1.50525 ± 0.00037"}
    ]},
    {"compound": "CCOS(=O)(=O)[O-].CC[n+]1ccccc1", "note": "[1-ethylpyridinium ethyl sulfate] + CCCCCCC", "values": [
      {"measurement": "mass density", "setting": "[1]; 283.15 K, x2 = 0.007", "value": "1260.51 ± 0.99", "unit": "kg/m3"},
      {"measurement": "mass density", "setting": "[1]; 298.15 K, x2 = 0.007", "value": "1250.63 ± 0.98", "unit": "kg/m3"}
    ]},
    {"compound": "CCOS(=O)(=O)[O-].CC[n+]1ccccc1", "note": "[1-ethylpyridinium ethyl sulfate] + c1ccccc1", "values": [
      {"measurement": "mass density", "setting": "[1]; 283.15 K, x2 = 0.335", "value": "1198.57 ± 1.7", "unit": "kg/m3"},
      {"measurement": "mass density", "setting": "[1]; 298.15 K, x2 = 0.406", "value": "1171.69 ± 1.7", "unit": "kg/m3"}
    ]}
  ]
}
